According to patent US11357779B2 (G1 Therapeutics, Inc., priority 2018, dated 2022):
Read-outs that look alike come from different tables or passages of the source.

Experiment: Plasma concentration versus time of Compound I and metabolite Compound III in patients dosed QD or BID with Form B of Compound II plus fulvestrant
Type: in vivo, human
Settings: human, plasma, oral; for concentration at 8 day / concentration at 15 day: Cohort 7, 150 mg BID of Form B; for concentration at 8 day: Day 8; for concentration at 15 day: Day 15
Source text: Patients were enrolled into 1 of 2 parallel, independently operating, dose-escalation dosing cohorts with Form B of Compound II administered continuously either once daily (QD) or twice daily (BID) with food with fixed-dose fulvestrant (intramuscularly every 14 days for the first three injections and then every 28 days). Pre- or perimenopausal patients also received goserelin for the duration of study treatment. A […] agonist was started at least 28 days before the first dose of Form B, and those patients who were taking another LHRH agonist were switched to goserelin on Day 1. Patients were split into […] cohorts providing once a day (QD) dosing of 200 mg, 300 mg, 400 mg, 500 mg, or 650 mg of Form B, or twice a day (BID) dosing of 100 mg, 150 mg, or 200 mg of Form B. The second dose in BID cohorts was not administered in the evening until at least 12 hours after the initial morning dose of Form B. The dosing cohorts for Form B of Compound II are provided in Table 1.
Blood samples were collected at the following time points relative to the morning dose of Form B at Day 1 and at Day 29: pre-dose (0 hour) and 1, 2, 3, 4, 6, 8, 10, 12 (prior to the evening dose in the BID cohorts), and 24 (prior to the next day's morning dose) hours after dosing. A 5-minute time window was allowed for samples collected between the predose and 3 hours after Form B dosing. A 15-minute window was allowed for samples collected between 4 to 12 hours after Form B dosing. A 1-hour window was allowed for the sample collected 24 hours after Form B dosing. Blood samples for Compound I PK trough levels were collected pre-dose at Day 8, Day 15, and Day 22 prior to the morning administration of Compound I. Plasma concentrations of Compound I and its metabolite, Compound III, were measured using validated methods.
Analysis of plasma concentration versus time data for calculation of standard pharmacokinetic (PK) parameters following oral administration was conducted using Phoenix WinNonlin version 6.3 using actual blood sampling times.

[1] = 150 mg, read-out: Trough Compound I Concentration, Max
[2] = 150 mg, read-out: Trough Compound I Concentration, Median

CC(C)N1CCN(c2ccc(Nc3ncc4cc5n(c4n3)C3(CCCCC3)CNC5=O)nc2)CC1 [Compound I, 2′-((5-(4-isopropylpiperazin-1-yl)pyridin-2-yl)amino)-7′,8′-dihydro-6′H-spiro[cyclohexane-1,9′-pyrazino[1′,2′:1,5]pyrrolo[2,3-d]pyrimidin]-6′-one] showed a concentration at 0 h (100 mg, Cohort 6, 100 mg BID of Form B, Day 29, 0.0 h, read-out: Compound I Concentration, Median) of 4.13 ng/mL, a concentration at 0 h (100 mg, Cohort 6, 100 mg BID of Form B, Day 29, 0.0 h, read-out: Compound I Concentration, Min) of 1.54 ng/mL and a concentration at 1 h (100 mg, Cohort 6, 100 mg BID of Form B, Day 29, 1.0 h, read-out: Compound I Concentration, Max) of 15.7 ng/mL. The concentration at 1 h (100 mg, Cohort 6, 100 mg BID of Form B, Day 29, 1.0 h, read-out: Compound I Concentration, Mean) was 9.25 ng/mL, the concentration at 1 h (100 mg, Cohort 6, 100 mg BID of Form B, Day 29, 1.0 h, read-out: Compound I Concentration, Median) was 9.34 ng/mL and the concentration at 1 h (100 mg, Cohort 6, 100 mg BID of Form B, Day 29, 1.0 h, read-out: Compound I Concentration, Min) was 1.79 ng/mL. It also gave a concentration at 2 h (100 mg, Cohort 6, 100 mg BID of Form B, Day 29, 2.0 h, read-out: Compound I Concentration, Max) of 19.6 ng/mL, a concentration at 2 h (100 mg, Cohort 6, 100 mg BID of Form B, Day 29, 2.0 h, read-out: Compound I Concentration, Mean) of 11 ng/mL and a concentration at 2 h (100 mg, Cohort 6, 100 mg BID of Form B, Day 29, 2.0 h, read-out: Compound I Concentration, Median) of 11.8 ng/mL. It also gave a concentration at 2 h (100 mg, Cohort 6, 100 mg BID of Form B, Day 29, 2.0 h, read-out: Compound I Concentration, Min) of 2.94 ng/mL, a concentration at 3 h (100 mg, Cohort 6, 100 mg BID of Form B, Day 29, 3.0 h, read-out: Compound I Concentration, Max) of 20.5 ng/mL and a concentration at 3 h (100 mg, Cohort 6, 100 mg BID of Form B, Day 29, 3.0 h, read-out: Compound I Concentration, Mean) of 10.5 ng/mL. It also gave a concentration at 3 h (100 mg, Cohort 6, 100 mg BID of Form B, Day 29, 3.0 h, read-out: Compound I Concentration, Median) of 8.31 ng/mL, a concentration at 3 h (100 mg, Cohort 6, 100 mg BID of Form B, Day 29, 3.0 h, read-out: Compound I Concentration, Min) of 4.4 ng/mL and a concentration at 4 h (100 mg, Cohort 6, 100 mg BID of Form B, Day 29, 4.0 h, read-out: Compound I Concentration, Max) of 19.8 ng/mL. It also gave a concentration at 4 h (100 mg, Cohort 6, 100 mg BID of Form B, Day 29, 4.0 h, read-out: Compound I Concentration, Mean) of 10.5 ng/mL, a concentration at 4 h (100 mg, Cohort 6, 100 mg BID of Form B, Day 29, 4.0 h, read-out: Compound I Concentration, Median) of 9.26 ng/mL and a concentration at 4 h (100 mg, Cohort 6, 100 mg BID of Form B, Day 29, 4.0 h, read-out: Compound I Concentration, Min) of 5.14 ng/mL. For the same compound, the concentration at 6 h (100 mg, Cohort 6, 100 mg BID of Form B, Day 29, 6.0 h, read-out: Compound I Concentration, Max) was 16.2 ng/mL, the concentration at 6 h (100 mg, Cohort 6, 100 mg BID of Form B, Day 29, 6.0 h, read-out: Compound I Concentration, Mean) was 8.82 ng/mL and the concentration at 6 h (100 mg, Cohort 6, 100 mg BID of Form B, Day 29, 6.0 h, read-out: Compound I Concentration, Median) was 8.11 ng/mL. The concentration at 6 h (100 mg, Cohort 6, 100 mg BID of Form B, Day 29, 6.0 h, read-out: Compound I Concentration, Min) was 4.1 ng/mL, the concentration at 8 h (100 mg, Cohort 6, 100 mg BID of Form B, Day 29, 8.0 h, read-out: Compound I Concentration, Max) was 13.8 ng/mL and the concentration at 8 h (100 mg, Cohort 6, 100 mg BID of Form B, Day 29, 8.0 h, read-out: Compound I Concentration, Mean) was 7.45 ng/mL. It also gave a concentration at 8 h (100 mg, Cohort 6, 100 mg BID of Form B, Day 29, 8.0 h, read-out: Compound I Concentration, Median) of 6.57 ng/mL, a concentration at 8 h (100 mg, Cohort 6, 100 mg BID of Form B, Day 29, 8.0 h, read-out: Compound I Concentration, Min) of 3.61 ng/mL and a concentration at 10 h (100 mg, Cohort 6, 100 mg BID of Form B, Day 29, 10.0 h, read-out: Compound I Concentration, Max) of 11.4 ng/mL. For the same compound, the concentration at 10 h (100 mg, Cohort 6, 100 mg BID of Form B, Day 29, 10.0 h, read-out: Compound I Concentration, Mean) was 6.23 ng/mL, the concentration at 10 h (100 mg, Cohort 6, 100 mg BID of Form B, Day 29, 10.0 h, read-out: Compound I Concentration, Median) was 5.44 ng/mL and the concentration at 10 h (100 mg, Cohort 6, 100 mg BID of Form B, Day 29, 10.0 h, read-out: Compound I Concentration, Min) was 2.88 ng/mL. It also gave a concentration at 12 h (100 mg, Cohort 6, 100 mg BID of Form B, Day 29, 12.0 h, read-out: Compound I Concentration, Max) of 10.1 ng/mL, a concentration at 12 h (100 mg, Cohort 6, 100 mg BID of Form B, Day 29, 12.0 h, read-out: Compound I Concentration, Mean) of 7.16 ng/mL and a concentration at 12 h (100 mg, Cohort 6, 100 mg BID of Form B, Day 29, 12.0 h, read-out: Compound I Concentration, Median) of 8.36 ng/mL. The concentration at 12 h (100 mg, Cohort 6, 100 mg BID of Form B, Day 29, 12.0 h, read-out: Compound I Concentration, Min) was 2.37 ng/mL, the concentration at 0 h (150 mg, 150 mg BID of Form B, Day 1, 0.0 h, Mean, read-out: Compound I Concentration) was 0 ng/mL and the concentration at 0 h (150 mg, 150 mg BID of Form B, Day 1, 0.0 h, Median, read-out: Compound I Concentration) was 0 ng/mL. For the same compound, the concentration at 1 h (150 mg, 150 mg BID of Form B, Day 1, 1.0 h, Mean, read-out: Compound I Concentration) was 4.63 ng/mL, the concentration at 1 h (150 mg, 150 mg BID of Form B, Day 1, 1.0 h, Median, read-out: Compound I Concentration) was 5.06 ng/mL and the concentration at 2 h (150 mg, 150 mg BID of Form B, Day 1, 2.0 h, Mean, read-out: Compound I Concentration) was 11 ng/mL. For the same compound, the concentration at 2 h (150 mg, 150 mg BID of Form B, Day 1, 2.0 h, Median, read-out: Compound I Concentration) was 11.6 ng/mL, the concentration at 3 h (150 mg, 150 mg BID of Form B, Day 1, 3.0 h, Mean, read-out: Compound I Concentration) was 14.4 ng/mL and the concentration at 3 h (150 mg, 150 mg BID of Form B, Day 1, 3.0 h, Median, read-out: Compound I Concentration) was 10.2 ng/mL. It also gave a concentration at 4 h (150 mg, 150 mg BID of Form B, Day 1, 4.0 h, Mean, read-out: Compound I Concentration) of 20.7 ng/mL, a concentration at 4 h (150 mg, 150 mg BID of Form B, Day 1, 4.0 h, Median, read-out: Compound I Concentration) of 21.5 ng/mL and a concentration at 6 h (150 mg, 150 mg BID of Form B, Day 1, 6.0 h, Mean, read-out: Compound I Concentration) of 12.2 ng/mL. For the same compound, the concentration at 6 h (150 mg, 150 mg BID of Form B, Day 1, 6.0 h, Median, read-out: Compound I Concentration) was 10.4 ng/mL, the concentration at 8 h (150 mg, 150 mg BID of Form B, Day 1, 8.0 h, Mean, read-out: Compound I Concentration) was 10.1 ng/mL and the concentration at 8 h (150 mg, 150 mg BID of Form B, Day 1, 8.0 h, Median, read-out: Compound I Concentration) was 9.95 ng/mL. It also gave a concentration at 10 h (150 mg, 150 mg BID of Form B, Day 1, 10.0 h, Mean, read-out: Compound I Concentration) of 8.98 ng/mL, a concentration at 10 h (150 mg, 150 mg BID of Form B, Day 1, 10.0 h, Median, read-out: Compound I Concentration) of 8.98 ng/mL and a concentration at 12 h (150 mg, 150 mg BID of Form B, Day 1, 12.0 h, Mean, read-out: Compound I Concentration) of 7.73 ng/mL. It also gave a concentration at 12 h (150 mg, 150 mg BID of Form B, Day 1, 12.0 h, Median, read-out: Compound I Concentration) of 7.38 ng/mL, a concentration at 8 day [1] of 42.3 ng/mL and a concentration at 8 day (150 mg, read-out: Trough Compound I Concentration, Mean) of 26.8 ng/mL. For the same compound, the concentration at 8 day [2] was 20.6 ng/mL, the concentration at 8 day (150 mg, read-out: Trough Compound I Concentration, Min) was 17.4 ng/mL and the concentration at 15 day [1] was 35.7 ng/mL. It also gave a concentration at 15 day [2] of 23.3 ng/mL.
